System: S. mutans S125 biofilms
Assay: Static microtiter plate biofilm killing assay, mono-species
Assay type: cell-based, Streptococcus mutans
Settings: for Biofilm cells killed: 24-h-old S. mutans S125 biofilm, strains 10^7 CFU/ml, chlorhexidine 10X MIC
Method: Static biofilms of S. mutons were developed on polystyrene microtiter plates by inoculating 300 μl of BHI medium with 10 μl (10^6 CFU/ml) of S. mutons S125 from an overnight culture. After 24 h of growth, the planktonic phase was carefully removed, and fresh bacteriocin-producing medium (BAC7, BAC8) containing chlorhexidine (10×MIC), BLIS M18® (10^7 CFU/ml), BLIS K12® (10^7 CFU/ml) or VAR6 (10^7 CFU/ml) was overlayed onto established biofilms and the plates were incubated for 24 h at 37° C. The upper phase was then removed, and the biofilms were washed with sterile phosphate-buffered saline (PBS, pH 7.2) and dislodged by gentle scraping using sterile pipette tips. Biofilm cells were serially diluted and plated on BHI-erythromycin agar plates. Colonies of S. mutons were counted after 48 h of incubation at 37° C. in air with 5% CO2. All assays were performed in triplicate from three independent cultures. For the fungal-bacterial assay, biofilms were developed in Yeast extract-Peptone-Glycerol (YPG) medium and using a mixture of S. mutons/Candida albicans at a ratio of 1:1. For the dental plaque assay, biofilms were developed in BHI broth and using BHI plaque suspension supplemented with S. mutons (approx. 10^5 CFU/ml).

Row | Molecule | Biofilm cells killed (24 h treatment in BAC7) | Biofilm cells killed (24 h treatment in BAC8) | Killing of S. mutans and inhibition of S. mutans biofilm growth (BAC7 and BAC8 medium, and in situ in the mouth of an individual)
1 | [H]/N=C(\N/C(=N/[H])NCCCCCCNC(=N)NC(=N)Nc1ccc(Cl)cc1)Nc1ccc(Cl)cc1 [chlorhexidine] | 91.6%±3.29 | 90.1%±2.89 | 
2 | SalE4: Multipeptide lantibiotic bacteriocin of VAR6 composed of Pep1, Pep2, Pep3 and Pep4 (SEQ ID NOs 5-8) (protein, listed as Streptococcus salivarius, lantibiotic post-translational modifications) chain 1: MAKNTSRPEIDSLSFEVENQELSGKSGSGWFTAVQLTLAGRCGRWFTGSFECTTNNVKCG chain 2: MRKNNNRKEIDTLDFEVKNQELSGKSGSGWFTAVQLTLAGRCGRWFTGSYECTTNNVKCG chain 3: MKSKKVNTEIDTLEFEIDNQELNGTSGSGWWYTAFKMTLAGRCGLCFTCSYECTTNNVHC chain 4: MKQDNFEIDSLDYEINSQELNGKSAAGWSTAVRLTVQGRCGWWFTHSYECTSPNVRCG |  |  | kill S. mutans, and inhibit the growth of S. mutans biofilms

Source: patent US20230381249A1, “PROBIOTIC STRAIN FOR COUNTERING CARIES PATHOGENS” (The Governing Council of the University of Toronto, priority 2022, published 2023)
